Publication PMC5701137, “Discovery of novel choline acetyltransferase inhibitors using structure-based virtual screening” (Scientific Reports, 2017)
pIC50, pKi: −log10 of the molar value. Where “and” joins values, the source holds several entries; their conditions need not be identical. Identical values can stand only once.

Tests used:
Type in all cases: biochemical
human rChAT [1] = target: T1, human rChAT (Homo sapiens, UniProt P28329); experiment: In vitro ChAT activity inhibition fluorometric assay and kinetic studies; settings: for mode of inhibition of human rChAT: Lineweaver-Burk plot and nonlinear regression fit; for Vmax of rChAT: inhibitor 0.4 µM, mean ± SEM of two experiments; for pKi / pIC50: mean of two experiments; for pIC50: substrate concentrations 20 to 80 µM
T1 construct: made in house; host or cells: E. coli BL21 Rosetta2
T1 sequence (P28329 1-630 isoform P28329-3): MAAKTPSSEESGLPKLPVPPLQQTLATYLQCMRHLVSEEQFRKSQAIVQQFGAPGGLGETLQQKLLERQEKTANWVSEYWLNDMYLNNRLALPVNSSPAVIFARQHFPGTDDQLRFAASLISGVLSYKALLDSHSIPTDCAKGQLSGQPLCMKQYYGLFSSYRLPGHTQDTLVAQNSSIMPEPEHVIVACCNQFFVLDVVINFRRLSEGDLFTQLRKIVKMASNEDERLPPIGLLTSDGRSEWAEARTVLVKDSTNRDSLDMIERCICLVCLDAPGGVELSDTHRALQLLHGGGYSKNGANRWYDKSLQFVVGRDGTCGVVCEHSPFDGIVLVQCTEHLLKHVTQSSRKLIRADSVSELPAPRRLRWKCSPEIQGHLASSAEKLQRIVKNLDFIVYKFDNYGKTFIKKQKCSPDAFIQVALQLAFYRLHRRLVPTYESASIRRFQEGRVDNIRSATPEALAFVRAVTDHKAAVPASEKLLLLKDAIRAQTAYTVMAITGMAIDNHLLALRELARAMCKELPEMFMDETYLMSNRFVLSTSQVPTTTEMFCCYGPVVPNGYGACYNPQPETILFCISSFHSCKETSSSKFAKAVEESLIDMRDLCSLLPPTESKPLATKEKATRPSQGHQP
Method: ChAT activity was measured using our newly developed fluorometric assay, using human recombinant ChAT (rChAT) protein. The reagents, choline chloride, acetyl coenzyme-A (ACoA, A2181) and 7-Diethylamino-3-(4-maleimidophenyl)-4-methylcoumarin (CPM) were purchased from Sigma-Aldrich (St. Louis, MO, USA).
The ChAT assay could be run in either 96-well or 384-well plates. For 96-well plates, 50 μL/well of 0.212 µg/ml (final concentration) of the recombinant ChAT was incubated with 100 μM different Asinex compounds (50 μL/well) for 10–30 minutes at room temperature in dilution buffer (10 mM Tris-HCl, pH 7.4, 150 mM NaCl, 1.0 mM EDTA, 0.05% (v/v) Triton X-100). Then, 50 µL of a cocktail-A [dilution buffer containing choline chloride (final concentration 150 µM), ACoA (final concentration 13.3 µM) and CPM (final concentration 15 µM)] was added to each well. Immediately after adding the cocktail-A, the changes in fluorescence was monitored kinetically at 479 nm after exciting at 390 nm at 1–2 minute intervals for 15–20 minutes using a microplate spectrophotometer reader (Infinite M1000, Tecan).
Each Asinex compounds were run in triplicates. On each 96-wells plate, several enzyme wells without inhibitor were also included during measurements as control and for estimating the inhibition level. Negative controls were wells without enzyme. The percentage inhibition for each Asinex compound was calculated based on the enzyme control value as a reference (100% activity). The compounds showing over 50% inhibition of enzyme activity were selected for further kinetic studies.
(§1) For kinetic studies, a similar protocol as inhibition assay was followed; a dilution series of five different concentrations ranging from 10^−6 to 10^−9 M were prepared for each selected Asinex compounds. For ChAT, the A-CoA was kept constant at 10 μM (final) but the concentration of choline chloride varied between 320–10 μM. For BuChE, BTC was used as the substrate in the concentrations ranging from 0.0625 to 2 mM. For AChE, ATC was used as the substrate in the concentrations ranging from 0.0312 to 1 mM. Each compound concentration was measured in duplicates. The rate of enzyme activity (as ∆OD/hr kinetic data) was calculated and processed using the GraphPad Prism 7 analysis software. The inhibitory constant (Ki) values were determined from the dose-response curve and the half-maximal inhibitory concentration (IC50) values were calculated by plotting the percentage enzyme activity vs. the log of the Asinex compound concentrations and fitting the data using the nonlinear regression Enzyme Kinetics-Inhibition function.
The Michaelis-Menten constant (Km) and maximal velocity (Vmax) values were calculated from substrate-velocity curve after fitting the data with non-linear regression Michaelis-Menten kinetic function. The Km and Vmax values were further used to plot the Lineweaver-Burk plots; the plots were fitted using linear regression function.

recombinant human AChE = target: T2, recombinant human AChE (Homo sapiens, UniProt P22303); experiment: Modified Ellman's colorimetric assay for AChE and kinetic studies; settings: 200 µM compound, compared to control, mean of three experiments in triplicate; for inhibition at 200 µM: read-out: AChE % IR (inhibition rate)
T2 construct: purchased Sigma C1682
Text: (§2) A modified version of Ellman’s colorimetric assay[16],[17] was adapted to a high throughput assay for the enzymatic activity of BuChE and AChE. The reagent, butyrylthiocholine iodide (BTC), acetylthiocholine iodide (ATC), 5,5′-dithiobis (2-nitrobenzoic acid) (DTNB) were purchased from Sigma-Aldrich (St. Louis, MO, USA). The modified assay details are as previously described[34],[35]. The main modification concerned with the high throughput adaptation of the assay for use in 384-well plates. Briefly, 25 μL/well of a 1:450 diluted solution of a pooled human plasma and 1:768 diluted (3.5 ng/ml final concentration) purified recombinant human AChE protein (Sigma, Cat no. C1682) was used for measurement of BuChE and AChE activity, respectively. In the initial in vitro screening step, the wells were pre-incubated with 25 μL/wells of different Asinex compounds for 10–30 minutes at room temperature. The concentration of the compounds working solution was 3X to give a final concentration of 200 μM in a final volume of 75 μL in each well. The stock concentration of the compounds were prepared in 100% DMSO. The stock concentration was chosen usually at 10 mM, allowing the final DMSO concentration in the wells to be less than 4%. Finally, 25 μL of a cocktail mix prepared in Na/K phosphate buffer, containing DTNB (final concentration 0.4 mM) and BTC, (final concentration 1 mM) or ATC (final concentration 0.5 mM) was added to each well and the changes in absorbance was monitored at 412 nm wavelength for 15–20 minutes with one-minute interval, using a microplate spectrophotometer reader (Infinite M1000, Tecan). The rate of the enzyme activity was determined from the linear part of the kinetic reaction curves as ∆OD/time.
as §1

plasma BuChE = target: T3, plasma BuChE (Homo sapiens, UniProt P06276); experiment: Modified Ellman's colorimetric assay for BuChE (pooled human plasma) and kinetic studies; settings: 200 µM compound, compared to control, mean of three experiments in triplicate; for BuChE % IR (inhibition rate): 200 µM; for inhibition at 200 µM: read-out: BuChE % IR (inhibition rate)
T3 construct: 1:450 diluted solution of a pooled human plasma; from tissue; host or cells: pooled human plasma
Text: as §2, §1

human rChAT [2] = target: T1, human rChAT; experiment: In vitro ChAT activity inhibition fluorometric assay and kinetic studies; settings: mean ± SEM of two experiments

T2 sequence (P22303 32-614): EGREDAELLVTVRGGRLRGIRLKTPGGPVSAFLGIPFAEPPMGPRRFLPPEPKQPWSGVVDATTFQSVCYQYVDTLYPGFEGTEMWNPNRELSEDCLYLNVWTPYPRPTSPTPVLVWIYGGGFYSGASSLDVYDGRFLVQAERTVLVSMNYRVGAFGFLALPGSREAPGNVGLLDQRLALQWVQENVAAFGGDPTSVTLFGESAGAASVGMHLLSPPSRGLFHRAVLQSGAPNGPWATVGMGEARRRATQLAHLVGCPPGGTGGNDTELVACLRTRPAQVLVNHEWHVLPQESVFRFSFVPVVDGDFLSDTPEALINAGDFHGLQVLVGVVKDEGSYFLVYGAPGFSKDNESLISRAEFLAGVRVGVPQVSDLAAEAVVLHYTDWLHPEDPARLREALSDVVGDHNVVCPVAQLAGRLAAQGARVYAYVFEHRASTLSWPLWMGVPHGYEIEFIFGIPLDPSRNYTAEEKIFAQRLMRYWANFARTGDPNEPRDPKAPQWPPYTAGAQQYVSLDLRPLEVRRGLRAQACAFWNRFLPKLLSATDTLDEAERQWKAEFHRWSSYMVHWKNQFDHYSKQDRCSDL
T3 sequence (P06276 29-602): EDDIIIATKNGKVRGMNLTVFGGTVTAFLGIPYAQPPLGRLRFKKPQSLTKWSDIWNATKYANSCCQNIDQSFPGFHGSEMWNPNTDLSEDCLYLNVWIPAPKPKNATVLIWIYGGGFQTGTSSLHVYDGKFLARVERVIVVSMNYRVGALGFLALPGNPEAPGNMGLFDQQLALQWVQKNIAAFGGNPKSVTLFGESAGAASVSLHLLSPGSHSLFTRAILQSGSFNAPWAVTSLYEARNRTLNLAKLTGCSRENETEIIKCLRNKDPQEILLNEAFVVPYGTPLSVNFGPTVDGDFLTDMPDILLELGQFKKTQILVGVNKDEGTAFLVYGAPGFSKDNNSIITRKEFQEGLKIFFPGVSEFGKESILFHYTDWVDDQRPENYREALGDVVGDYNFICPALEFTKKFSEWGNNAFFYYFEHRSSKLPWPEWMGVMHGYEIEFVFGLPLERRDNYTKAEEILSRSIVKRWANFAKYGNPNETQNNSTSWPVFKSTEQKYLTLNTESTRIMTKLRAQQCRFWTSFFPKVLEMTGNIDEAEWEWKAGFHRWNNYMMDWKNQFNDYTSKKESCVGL

Row | SMILES | mode of inhibition of human rChAT (human rChAT [1]) | Vmax of rChAT (human rChAT [1]) | pKi (human rChAT [1]) | pIC50 (human rChAT [1]) | inhibition at 200 µM (recombinant human AChE) | BuChE % IR (inhibition rate) (plasma BuChE) | inhibition at 200 µM (plasma BuChE) | Vmax of rChAT (human rChAT [2]; inhibitor 2.0 µM) | Vmax of rChAT (human rChAT [2]; inhibitor 10.0 µM) | Vmax of rChAT (human rChAT [2]; inhibitor 50.0 µM) | Vmax of rChAT (human rChAT [2]; inhibitor 250.0 µM) | inhibition at 100 µM (human rChAT [1]; 100 µM compound, compared to control, mean of three experiments in triplicate, read-out: ChAT % IR (inhibition rate)) | AChE % IR (inhibition rate) (recombinant human AChE; 200 µM)
1 | CC(C)NC(=O)C1CCN(C(=O)c2csc(Nc3cccc4ccccc34)n2)CC1 [Compound B4] | mixed-model type inhibition | 239.0 ± 21.4 µM/min | 4.92 | ~4.78 and 4.78 | 0% | 22.1% | 22% | 226 ± 20.9 µM/min | 150.9 ± 13.5 µM/min | 92.1 ± 19.4 µM/min | 45.5 ± 8.5 µM/min | – | –
2 | CC(C)c1ccc(C(=O)CSc2n[nH]c(-c3ccco3)n2)cc1 [Compound E1] | mixed-model inhibition | 276.1 ± 12.1 µM/min | ~4.82 and 4.82 | ~4.60 and 4.60 | 12% | 17.2% | 17% | 265.1 ± 11.7 µM/min | 243.8 ± 22.0 µM/min | 167.8 ± 10.4 µM/min | 160.3 ± 16.8 µM/min | > 50% | 12.4%
